Source: US20210130411A1, “CYCLIC HEXAPEPTIDES COMPOUNDS WITH ANTI-MALARIAL ACTIVITY” (priority 2018, published 2021)
Where two headings read alike, the source gives them in different places. Where a SMILES comes first, the peptide text is derived from it. [ ]: non-standard residue; d: D form. The star is where a group is joined. Trt = c1ccc(C(c2ccccc2)(c2ccccc2)*)cc1; Sar = CNCC(=O)O; tBu = CC(C)(C)*

Tests used:
[1] = tested on: P. falciparum K1 (chloroquine-resistant strain); assay: microbe, parasite or virus in culture
Method: For the in vitro study of the antimalarial activity against P. falciparum K1, this strain originating from Thailand that is resistant to chloroquine and pyrimethamine but sensitive to mefloquine was used. The cultures are naturally asynchronous (65-75% ring stage) and are maintained in continuous log phase growth in RPM11640 medium supplemented with 5% washed human A+erythrocytes, 25 mM HEPES, […] NaHCO3, and AlbuMAXII (lipid-rich bovine serum albumin) (GIBCO, Grand Island, N.Y.) (CM). All cultures and assays are conducted at 37° C. under an atmosphere of 5% CO2 and 5% 02, with a balance of N2.
For drug sensitivity assays, tock drug solutions are prepared in 100% DMSO (dimethylsulfoxide) at 20 mM. The compound is further diluted to the appropriate concentration using complete medium RPM11640 supplemented with 15 nM cold hypoxanthine and AlbuMAXII. Assays are performed in sterile 96-well microtitre plates, each plate contains […] of parasite culture (0.5% parasitemia, 2.5% hematocrit). Each drug is tested in triplicate and parasite growth is compared to control and blank (uninfected erythrocytes) wells. After 24 h of incubation at 37° C., 3.7 Bq of [3H]hypoxanthine is added to each well. Cultures are incubated for a further 24 h before they are harvested onto glass-fiber filter mats. The radioactivity is counted using a Wallac Microbeta 1450 scintillation counter. […] The percentage inhibition is calculated from comparison of blank and control wells, and EC50 values are calculated using Prism™. Screen. The K1 line is used. The compound is diluted threefold over 12 different concentrations with an appropriate starting concentration. The EC50 is determined by a sigmoidal dose-response analysis using Prism™. For each assay, the EC50 value for the parasite line is determined against the known antimalarials chloroquine and artesunate, plus other standard compounds appropriate for the assay.
(§1) were tested in vitro against the intraerythrocytic form of the parasite Plasmodium falciparum K1 (chloroquine-resistant strain) and Plasmodium falciparum 31D7 (chloroquine-sensitive strain). The selectivity index (SI) was determined as the ration between EC50 against murine macrophages or HepG2 cells and the EC50 against P. falciparum.

Plasmodium sp. = details: background statement, strain not stated; cited from earlier work
[2] = tested on: Plasmodium falciparum 3D7 (chloroquine-sensitive strain); assay: microbe, parasite or virus in culture; assay type: cell-based
Method: For the in vitro study of the antimalarial activity against P. falciparum D7, two stock solutions were prepared: solution A (dilution of powder sample) at 20 mM and solution B at 1 mM (made by dilution of solution A). Next, the compounds were diluted 100-fold (drug solution=10 μM), then, suitable volume of drug solution was transferred in the SYBR GREEN assay plate (final concentration=10-0.15 μM). However, due to the high potency of the samples, the initial concentration was reduced in order to determine the EC50 values. The assay condition included: hematocrit at 2%, initial parasitemia 0.5% and artesunate and pyrimethamine were used as positive control. The fluorescence of each well is measured. The EC50 value of each compound was assessed in at least two independent experiments.
as §1, with “falciparum. In the following Table 1 is shown the results of the EC50 obtained for each of the tested compounds against P. falciparum K1 (P. f. K1) and P. falciparum 3D7 (P. f. 3D7) and the SI calculated.” for “falciparum.”

P. falciparum 3D7 strain = assay: Killing rates assay, P. falciparum 3D7 intraerythrocytic form; assay type: cell-based, Plasmodium falciparum
Method: The assay was performed in P. falciparum 3D7 strain in its intraerythrocytic form. […] Each compound was renewed (washing the parasites and adding culture media and the compound again) after the first 24 hours of treatment.

[3] = tested on: murine macrophages or HepG2 cells; assay: Selectivity index: EC50 against murine macrophages or HepG2 cells over EC50 against P. falciparum; assay type: cell-based; details: ratio of EC50 against murine macrophages or HepG2 cells to EC50 against P. falciparum
Method: as §1, with “falciparum. In the following Table 1 is shown the results of the EC50 obtained for each of the tested compounds against P. falciparum K1 (P. f. K1) and P. falciparum 3D7 (P. f. 3D7) and the SI calculated.” for “falciparum.”

P. berghei = assay: Anti-malarial activity in vivo in mice inoculated with P. berghei; details: 50 mg/Kg oral, 3 consecutive days
[4] = Plasma pharmacokinetics after single oral administration; assay type: in vivo, male Swiss Albino mice
Method: The objective of this study was to investigate the plasma pharmacokinetics of the compound CF-88 in male Swiss Albino mice following a single oral administration. Nine animals were used in this study as Group 1 (PO: 50 mg/kg). Animals were administered with solution formulation of CF-88 in 3% DMSO and RPMI medium via oral route at 50 mg/kg. The blood samples were collected from set of three mice at each time point in labeled micro centrifuge tube containing K2EDTA solution as anticoagulant at 0.25, 0.5, 1, 2, 4, 6, 8, 12 and 24 hr. Plasma samples were separated by centrifugation of whole blood and stored below −70±10° C. until bioanalysis. All samples were processed for analysis by protein precipitation using acetonitrile and analyzed with fit-for-purpose LC-MS/MS method (LLOQ=5.16 ng/mL). Pharmacokinetic parameters were calculated using the non-compartmental analysis tool of Phoenix WinNonlin® (Version 7.0).
For the preparation of the oral formulation accurately weighed 19.93 mg of compound for PO dosing was added in a labeled bottle. The volume 0.112 mL of DMSO was added and vortexed. The volume 3.617 mL of RPMI medium was added and vortexed. The final formulation (5 mg/mL) was vortexed for 2 minutes to get finely suspended formulation.
After preparation of formulations, a volume of 200 μL was aliquoted for analysis. […] Formulations were prepared freshly prior to dosing.
Blood samples (approximately 60 μL) were collected from retro-orbital plexus of three mice at 0.25, 0.5, 1, 2, 4, 6, 8, 12 and 24 hr. Samples were collected into labeled micro-tubes, containing K2EDTA solution (20% K2EDTA solution) as an anticoagulant. Plasma was immediately harvested from the blood by centrifugation at 4000 rpm for 10 min at 4±2° C. and stored below −70° C. until bioanalysis.

P. b. (liver st) = assay: Biological activity in vitro against the hepatic form of the parasite; assay type: cell-based, P. berghei
[5] = Plasmodium falciparum, K1, read-out: EC50 P. f. K1
[6] = 0 hrs of treatment, compound at 10×EC50
[7] = 24 hrs of treatment, compound at 10×EC50 (CF89 500 nM, SP79 30 nM)
[8] = 48 hrs of treatment, compound renewed after 24 hrs, 10×EC50
[9] = read-out: EC50 P. f. K1, intraerythrocytic form, chloroquine-resistant strain
[10] = intraerythrocytic form, chloroquine-sensitive strain, read-out: EC50 P. f. 3D7
[11] = male, Swiss Albino, mouse, in vivo, po, 50 mg/kg
[12] = male, Swiss Albino, mouse, plasma, PO 50 mg/kg, 12 hrs after administration, read-out: plasma concentration at 12 hrs

C[C@@H]1CC[C@H]2[C@@H](C)C(=O)O[C@@H]3O[C@@]4(C)CC[C@@H]1[C@]32OO4 [Artemisinine, reference compound]
EC50 [1, 5]: 20 nM
EC50 (Plasmodium sp.): 20 nM

C[C@H]1[C@H](OC(=O)CCC(=O)O)O[C@@H]2O[C@@]3(C)CC[C@H]4[C@H](C)CC[C@@H]1[C@@]24OO3 [Artesunate]
EC50 [1, 5]: 3 nM
EC50 ([2]; Plasmodium falciparum, 3D7, read-out: EC50 P. f. 3D7): 5 nM
Survival % (P. falciparum 3D7 strain; [6]): 100%
Survival % (P. falciparum 3D7 strain; [7]): 10.01%
Survival % (P. falciparum 3D7 strain; [8]): 8.59%
EC50 (Plasmodium sp.): 5 nM

O=C1C(O)=C([C@H]2CC[C@H](c3ccc(Cl)cc3)CC2)C(=O)c2ccccc21 [Atovaquone]
Survival % (P. falciparum 3D7 strain; [6]): 100%
Survival % (P. falciparum 3D7 strain; [7]): 56.55%
Survival % (P. falciparum 3D7 strain; [8]): 32.02%

CN1CC(=O)N[C@@H](CSC(c2ccccc2)(c2ccccc2)c2ccccc2)C(=O)N(C)CC(=O)N[C@@H](CSC(c2ccccc2)(c2ccccc2)c2ccccc2)C(=O)N(C)CC(=O)N[C@@H](COC(C)(C)C)C1=O [CF87, Cycle-NMe-Gly-L-Cys(Trt)-NMe-Gly-L-Ser(^t-Bu)-NMe-Gly-L-Cys(Trt)] (cyclo(C(Trt)[Sar]C(Trt)[Sar]S(tBu)[Sar]))
EC50 ([2]; 3D7 (chloroquine-sensitive strain)): 3.8 nM
SI [3]: > 12500

C[C@@H](OC(C)(C)C)[C@@H]1NC(=O)CN(C)C(=O)[C@H](CSC(c2ccccc2)(c2ccccc2)c2ccccc2)NC(=O)CNC(=O)[C@H](CSC(c2ccccc2)(c2ccccc2)c2ccccc2)NC(=O)CN(C)C1=O [CF88, Cycle-NMe-Gly-L-Thr(^t-Bu)-NMe-Gly-L-Cys(Trt)-Gly-L-Cys(Trt)] (cyclo(C(Trt)GC(Trt)[Sar]T(tBu)[Sar]))
EC90 ([1]; against P. falciparum K1): 1 nM
EC50 [1, 9]: 0.008 nM
EC50 [2, 10]: 0.25 nM
SI [3]: >1 × 10^6
Days of survival (P. berghei): 25 ± 7 days
Parasitemia (P. berghei; Day 5): 0.9 ± 0.7
Parasitemia (P. berghei; Day 7): 1.7 ± 0.3
Parasitemia (reduction %) (P. berghei; Day 7): (46 ± 10%)
Parasitemia (P. berghei; Day 9): 6 ± 1
Parasitemia (reduction %) (P. berghei; Day 9): (33 ± 10%)
clinical signs after oral administration ([4]; PO 50 mg/kg single dose): all animals were normal without any clinical signs
t1/2 ([4]; PO 50 mg/kg, plasma, 4, 6, 8 and 12 hr time points considered (r^2 = 0.7325)): 4.93 h
detected in plasma up to ([4]; PO 50 mg/kg, time after administration): 12 h
detection in plasma at 24 hrs ([4]; PO 50 mg/kg, LLOQ 5.16 ng/mL): no detection
AUCinf [4, 11]: 390.71
AUClast [4, 11]: 314.79
Cmax [4, 11]: 61.13 ng/mL
tmax [4, 11]: 2 h
level at 12 h [4, 12]: 10.8 ng/mL
level at time molar at 12 h [4, 12]: 10 nM

C[C@@H](OC(C)(C)C)[C@@H]1NC(=O)CNC(=O)[C@H](CSC(c2ccccc2)(c2ccccc2)c2ccccc2)NC(=O)CNC(=O)[C@H](CSC(c2ccccc2)(c2ccccc2)c2ccccc2)NC(=O)CN(C)C1=O [CF90, Cycle-L-Thr(^tBu)-NMe-Gly-L-Cys(Trt)-Gly-L-Cys(Trt)-Gly] (cyclo(C(Trt)GC(Trt)GT(tBu)[Sar]))
EC50 [1, 9]: 0.13 nM
EC50 [2, 10]: 1.4 nM
SI [3]: >1 × 10^5

CN1CC(=O)N[C@@H](CSC(c2ccccc2)(c2ccccc2)c2ccccc2)C(=O)N(C)CC(=O)N[C@@H](CSC(c2ccccc2)(c2ccccc2)c2ccccc2)C(=O)N(C)CC(=O)N[C@@H](CCC(=O)O)C1=O [CFfs49.4, Cycle-NMe-Gly-L-Cys(Trt)-NMe-Gly-L-Cys(Trt)-NMe-Gly-L-Glu] (cyclo(C(Trt)[Sar]C(Trt)[Sar]E[Sar]))
EC50 [1, 9]: 0.2 nM
EC50 [2, 10]: 12 nM
SI [3]: >20000
Days of survival (P. berghei): 23 ± 4 days
Parasitemia (P. berghei; Day 5): 1.1 ± 0.2
Parasitemia (P. berghei; Day 7): 1.6 ± 0.2
Parasitemia (reduction %) (P. berghei; Day 7): (46 ± 6%)
Parasitemia (P. berghei; Day 9): 4.8 ± 0.5
Parasitemia (reduction %) (P. berghei; Day 9): (50 ± 4%)

COC(=O)CC[C@@H]1NC(=O)CN(C)C(=O)[C@H](CSC(c2ccccc2)(c2ccccc2)c2ccccc2)NC(=O)CN(C)C(=O)[C@H](CSC(c2ccccc2)(c2ccccc2)c2ccccc2)NC(=O)CN(C)C1=O [CFfs49.5] (cyclo(C(Trt)[Sar]C(Trt)[Sar]E(OMe)[Sar]))
EC50 [2, 10]: 5.2 nM
SI [3]: >40000

CCN(CC)CCCC(C)Nc1ccnc2cc(Cl)ccc12 (stereo not drawn) [Chloroquine, reference compound]
EC50 [1, 5]: 470 nM
Survival % (P. falciparum 3D7 strain; [6]): 100%
Survival % (P. falciparum 3D7 strain; [7]): 14.13%
Survival % (P. falciparum 3D7 strain; [8]): 7.04%
Days of survival (P. berghei): >30 days
Parasitemia (reduction %) (P. berghei; Day 5 (96 hrs after infection)): (100%)
Parasitemia (P. berghei; Day 5): 0
Parasitemia (P. berghei; Day 7): 0
Parasitemia (reduction %) (P. berghei; Day 7): (100%)
Parasitemia (P. berghei; Day 9): 0
Parasitemia (reduction %) (P. berghei; Day 9): (100%)

CCc1nc(N)nc(N)c1-c1ccc(Cl)cc1 [Pyrimethamine]
EC50 ([2]; Plasmodium falciparum, 3D7, intraerythrocytic form, chloroquine-sensitive strain, read-out: EC50 P. f. 3D7): 31 nM
Survival % (P. falciparum 3D7 strain; [6]): 100%
Survival % (P. falciparum 3D7 strain; [7]): 53.52%
Survival % (P. falciparum 3D7 strain; [8]): 9.59%

C[C@@H](OC(C)(C)C)[C@@H]1NC(=O)CN(C)C(=O)[C@H](CSC(c2ccccc2)(c2ccccc2)c2ccccc2)NC(=O)CN(C)C(=O)[C@H](CSC(c2ccccc2)(c2ccccc2)c2ccccc2)NC(=O)CN(C)C1=O [SP79, Cycle-NMe-Gly-L-Thr(^t-Bu)-NMe-Gly-L-Cys(Trt)-NMe-Gly-L-Cys(Trt)] (cyclo(C(Trt)[Sar]C(Trt)[Sar]T(tBu)[Sar]))
EC50 [1, 9]: 0.7 nM
EC50 [2, 10]: 1 nM
SI [3]: >140000
EC50 (P. b. (liver st)): 18.6 nM
Survival % (P. falciparum 3D7 strain; [6]): 100%
Survival % (P. falciparum 3D7 strain; [7]): 83.74%
Survival % (P. falciparum 3D7 strain; [8]): 57.48%
